For one test, the target named is mu opioid receptor (MOR) (Homo sapiens, UniProt P35372). The test can be described thus: MOR cAMP agonist assay.
Test [1] deals with T1, kappa opioid receptor (KOR) (Homo sapiens, UniProt P41145).
T1 construct: host or cells: CHO-K1
The test can be described thus: cell-based. Conditions: after activation with dynorphin B. From the text:
KOR cAMP Antagonist Assay

Setting [2] is: kOR cAMP IC50, CHO-K1 cells expressing kOR.
[3] abbreviates: CHO-K1 cells expressing kOR, read-out: kOR cAMP IC50.
[4] abbreviates: read-out: mOR cAMP EC50, CHO-K1 cells stably expressing mOR, cAMP levels.

Structures are written as SMILES. Like-named read-outs stand apart in the source and are kept apart here. Where only a bound is given, the exact number is not on record here.

mu opioid receptor (MOR), sequence (P35372 whole entry): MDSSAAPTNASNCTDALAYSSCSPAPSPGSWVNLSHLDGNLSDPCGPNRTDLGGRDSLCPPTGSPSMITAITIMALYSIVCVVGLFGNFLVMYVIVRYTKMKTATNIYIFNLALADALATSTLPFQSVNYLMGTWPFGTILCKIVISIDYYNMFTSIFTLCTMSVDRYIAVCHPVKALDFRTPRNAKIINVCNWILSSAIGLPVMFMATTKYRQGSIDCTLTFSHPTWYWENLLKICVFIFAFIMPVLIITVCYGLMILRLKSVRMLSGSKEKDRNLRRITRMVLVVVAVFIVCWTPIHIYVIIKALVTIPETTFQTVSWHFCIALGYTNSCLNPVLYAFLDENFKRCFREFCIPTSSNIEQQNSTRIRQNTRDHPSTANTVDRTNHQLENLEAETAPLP
T1 sequence (P41145 whole entry): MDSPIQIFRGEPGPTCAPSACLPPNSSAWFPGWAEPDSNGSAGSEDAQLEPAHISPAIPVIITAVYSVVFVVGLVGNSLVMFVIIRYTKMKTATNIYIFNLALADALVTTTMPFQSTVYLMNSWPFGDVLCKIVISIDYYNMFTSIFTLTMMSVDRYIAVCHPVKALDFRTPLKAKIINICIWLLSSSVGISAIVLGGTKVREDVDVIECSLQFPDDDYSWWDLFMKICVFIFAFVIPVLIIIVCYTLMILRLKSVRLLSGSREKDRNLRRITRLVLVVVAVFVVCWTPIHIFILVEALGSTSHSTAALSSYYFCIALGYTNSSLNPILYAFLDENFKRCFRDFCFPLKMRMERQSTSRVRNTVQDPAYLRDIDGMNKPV

Consider `Cc1cc(O)cc(C)c1C[C@@H](CNC(=O)[C@@H]1C[C@@]1(C)c1ccccc1)N(C)C` [Compound B-13, (1R,2R)—N—((S)-2-(dimethylamino)-3-(4-hydroxy-2,6-dimethylphenyl)propyl)-2-methyl-2-phenylcyclopropane-1-carboxamide], for which, at mu opioid receptor (MOR), the EC50 was < 100 nM. Further, the IC50 in test [1] (setting [2]) was < 100 nM.

Take `Cc1cc(C(N)=O)cc(C)c1C[C@@H](CNC(=O)[C@@H]1C[C@@]1(C)c1ccccc1)N(C)C` [Compound B-8, 4-((S)-2-(dimethylamino)-3-((1R,2R)-2-methyl-2-phenylcyclopropane-1-carboxamido)propyl)-3,5-dimethylbenzamide]: on mu opioid receptor (MOR), the EC50 is < 100 nM. The IC50 in test [1] (setting [2]) was in the range of 100 to 1000 nM.

`C[C@H](OC(=O)NC[C@@H](N)Cc1ccc(C(N)=O)cc1)c1ccccc1` [Compound A-2, (S)-1-phenylethyl ((S)-2-amino-3-(4-carbamoylphenyl)propyl)carbamate]: at mu opioid receptor (MOR), the EC50 is > 1000 nM. The half-inhibitory concentration (IC50) in test [1] (setting [3]) is > 1000 nM.

With `CN(C)[C@H](CNC(=O)[C@H]1CCCN1c1ccccc1)Cc1ccc(C(N)=O)cc1` [Compound B-9, (R)—N—((S)-3-(4-carbamoylphenyl)-2-(dimethylamino)propyl)-1-phenylpyrrolidine-2-carboxamide], on mu opioid receptor (MOR), the EC50 fell in the range of 100 to 1000 nM. In addition, the IC50 in test [1] (setting [2]) was > 1000 nM.

With `Cc1cc(C(N)=O)cc(C)c1C[C@@H](CNC(=O)N[C@H](c1ccccc1)C1CC1)N(C)C` [Compound A-9, 4-((S)-3-(3-((S)-cyclopropyl(phenyl)methyl)ureido)-2-(dimethylamino)propyl)-3,5-dimethylbenzamide], the EC50 on mu opioid receptor (MOR) is > 1000 nM. In test [1] (setting [3]), the concentration for half-maximal inhibition (IC50) was > 1000 nM.

With `CN(C)[C@H](CNC(=O)[C@@H]1C[C@@]1(C)c1ccccc1)Cc1ccc(C(N)=O)cc1Cl` [Compound B-60, 3-chloro-4-((S)-2-(dimethylamino)-3-((1R,2R)-2-methyl-2-phenylcyclopropane-1-carboxamido)propyl)benzamide], the EC50 on mu opioid receptor (MOR) (setting [4]) is < 100 nM. Further, the half-inhibitory concentration (IC50) in test [1] (setting [2]) is < 100 nM.

For `Cc1cc(C(N)=O)cc(C)c1C[C@@H](CNC(=O)C[C@@H](C)c1ccccc1)N(C)C` [Compound A-11, 4-((S)-2-(dimethylamino)-3-((R)-3-phenylbutanamido)propyl)-3,5-dimethylbenzamide], on mu opioid receptor (MOR), the EC50 is > 1000 nM. This molecule also yielded a concentration for half-maximal inhibition (IC50) in test [1] (setting [2]) of 100 to 1000 nM.

As for `CN(C)[C@H](CNC(=O)[C@@H]1C[C@@]1(C)c1ccccc1)Cc1ccc(C(N)=O)cc1` [Compound B-3, 4-((S)-2-(dimethylamino)-3-((1R,2R)-2-methyl-2-phenylcyclopropane-1-carboxamido)propyl)benzamide], the EC50 at mu opioid receptor (MOR) was < 100 nM. The IC50 in test [1] (setting [2]) was > 1000 nM.

As for `C[C@]1(c2ccccc2)C[C@H]1C(=O)NC[C@H](Cc1ccc2[nH]ncc2c1)N1CCOCC1` [Compound B-43, (1R,2S)—N—((S)-3-(2H-indazol-5-yl)-2-morpholinopropyl)-2-methyl-2-phenylcyclopropane-1-carboxamide], the EC50 on mu opioid receptor (MOR) was > 1000 nM. Moreover, in test [1] (setting [3]), the IC50 was > 1000 nM.

In turn, `CN(C)[C@H](CNC(=O)[C@@H]1CCCN1c1ccccc1)Cc1ccc(C(N)=O)cc1` [Compound B-10, (S)—N—((S)-3-(4-carbamoylphenyl)-2-(dimethylamino)propyl)-1-phenylpyrrolidine-2-carboxamide] yielded a concentration for a half-maximal effect (EC50) at mu opioid receptor (MOR) of 100 to 1000 nM. The molecule also displayed an IC50 in test [1] (setting [2]) of 100 to 1000 nM.

`Cc1cc(C[C@@H](CNC(=O)[C@@H]2C[C@]2(C)c2ccccc2)N(C)CC2CC2)ccc1O` [Compound B-40, (1R,2S)—N—((S)-2-((cyclopropylmethyl)(methyl)amino)-3-(4-hydroxy-3-methylphenyl)propyl)-2-methyl-2-phenylcyclopropane-1-carboxamide]: the EC50 at mu opioid receptor (MOR) was < 100 nM. Further, the 50% inhibitory concentration (IC50) in test [1] (setting [2]) was > 1000 nM.

As for `Cc1cc(C(N)=O)cc(C)c1C[C@@H](CNC(=O)C[C@H](C)c1ccccc1)N(C)C` [Compound A-8, 4-((S)-2-(dimethylamino)-3-((S)-3-phenylbutanamido)propyl)-3,5-dimethylbenzamide], the half-maximal effective concentration (EC50) at mu opioid receptor (MOR) is > 1000 nM. Also, in test [1] (setting [3]), the IC50 is > 1000 nM.

Regarding `CN(C)[C@H](CNC(=O)C1CC1(C)c1ccccc1)Cc1ccc(C(N)=O)cc1` (stereo partly drawn) [Compound B-61, 4-((2S)-2-(dimethylamino)-3-(2-methyl-2-phenylcyclopropane-1-carboxamido)propyl)benzamide], the EC50 on mu opioid receptor (MOR) was < 100 nM. For the same molecule, the half-maximal inhibitory concentration (IC50) in test [1] (setting [2]) was > 1000 nM.

Regarding `C[C@H](NC(=O)NC[C@H](Cc1ccc(C(N)=O)cc1)N(C)C)c1ccccc1` [Compound A-1, 4-((S)-2-(dimethylamino)-3-(3-((S)-1-phenylethyl)ureido)propyl) benzamide], at mu opioid receptor (MOR), the EC50 was > 1000 nM. The 50% inhibitory concentration (IC50) in test [1] (setting [2]) is 100 to 1000 nM.

In the case of `CN(C)[C@H](CNC(=O)[C@@H]1C[C@@]1(C)c1ccccc1)Cc1c(F)cc(O)cc1F` [Compound B-14, (1R,2R)—N—((S)-3-(2,6-difluoro-4-hydroxyphenyl)-2-(dimethylamino)propyl)-2-methyl-2-phenylcyclopropane-1-carboxamide], the concentration for a half-maximal effect (EC50) at mu opioid receptor (MOR) was < 100 nM. For the same molecule, the concentration for half-maximal inhibition (IC50) in test [1] (setting [2]) is > 1000 nM.

Turning to `CN(C)[C@H](CNC(=O)[C@@H]1C[C@]1(C)c1ccccc1)Cc1ccc(C(N)=O)cc1` [Compound B-5, 4-((S)-2-(dimethylamino)-3-((1R,2S)-2-methyl-2-phenylcyclopropane-1-carboxamido)propyl)benzamide], the EC50 at mu opioid receptor (MOR) is < 100 nM. The IC50 in test [1] (setting [2]) was < 100 nM.

Regarding `CN(C)[C@H](CNC(=O)[C@@H]1C[C@]1(C)c1ccccc1)Cc1ccc(C(=O)NC2CC2)c(F)c1` [Compound B-39, N-cyclopropyl-4-((S)-2-(dimethylamino)-3-((1R,2S)-2-methyl-2-phenylcyclopropane-1-carboxamido)propyl)-2-fluorobenzamide], the EC50 on mu opioid receptor (MOR) was < 100 nM. Further, in test [1] (setting [2]), the half-inhibitory concentration (IC50) is > 1000 nM.

With `CN(C)[C@H](CNC(=O)[C@H]1C[C@@]1(C)c1ccccc1)Cc1ccc(O)cc1` [Compound B-58, (1S,2R)—N—((S)-2-(dimethylamino)-3-(4-hydroxyphenyl)propyl)-2-methyl-2-phenylcyclopropane-1-carboxamide], the EC50 at mu opioid receptor (MOR) (setting [4]) is 100 to 1000 nM. Further, the concentration for half-maximal inhibition (IC50) in test [1] (read-out: kOR cAMP IC50, CHO-K1 cells expressing kOR) was > 1000 nM.

With `C[C@H](OC(=O)NC[C@H](Cc1ccc(C(N)=O)cc1)N(C)C)c1ccccc1` [Compound A-3, (S)-1-phenylethyl ((S)-3-(4-carbamoylphenyl)-2-(dimethylamino)propyl) carbamate], the EC50 at mu opioid receptor (MOR) was < 100 nM. The IC50 in test [1] (setting [2]) is > 1000 nM.

For `CNC(=O)c1ccc(C[C@@H](CNC(=O)[C@@H]2C[C@@]2(C)c2ccccc2)N(C)C)cc1F` [Compound B-2, 4-((S)-2-(dimethylamino)-3-((1R,2R)-2-methyl-2-phenylcyclopropane-1-carboxamido)propyl)-2-fluoro-N-methylbenzamide], the 50% effective concentration (EC50) at mu opioid receptor (MOR) was < 100 nM. Also, the IC50 in test [1] (setting [2]) is > 1000 nM.

As to `CN(C)[C@H](CNC(=O)[C@@H]1C[C@]1(C)c1ccccc1)Cc1ccc2[nH]ncc2c1` [Compound B-19, (1R,2S)—N—((S)-2-(dimethylamino)-3-(1H-indazol-5-yl)propyl)-2-methyl-2-phenylcyclopropane-1-carboxamide], on mu opioid receptor (MOR), the EC50 is < 100 nM. The IC50 in test [1] (setting [2]) is > 1000 nM.

As for `CN(C)[C@H](CNC(=O)[C@@H]1C[C@@]1(C)c1ccccc1)Cc1ccc(O)cc1Cl` [Compound B-1, (1R,2R)—N—((S)-3-(2-chloro-4-hydroxyphenyl)-2-(dimethylamino)propyl)-2-methyl-2-phenylcyclopropane-1-carboxamide], the EC50 on mu opioid receptor (MOR) is < 100 nM. Moreover, the concentration for half-maximal inhibition (IC50) in test [1] (setting [2]) is < 100 nM.

For `CN(C)[C@H](CNC(=O)[C@@H]1C[C@]1(C)c1ccccc1)Cc1ccc(O)cc1` [Compound B-12, (1R,2S)—N—((S)-2-(dimethylamino)-3-(4-hydroxyphenyl)propyl)-2-methyl-2-phenylcyclopropane-1-carboxamide], at mu opioid receptor (MOR), the half-maximal effective concentration (EC50) is > 1000 nM. Also, in test [1] (setting [2]), the IC50 is < 100 nM.

Consider `CN(C)[C@H](CNC(=O)[C@@H]1C[C@]1(C)c1ccccc1)Cc1cc2cn[nH]c2cc1Cl` [Compound B-54, (1R,2S)—N—((S)-3-(6-chloro-2H-indazol-5-yl)-2-(dimethylamino)propyl)-2-methyl-2-phenylcyclopropane-1-carboxamide], for which, on mu opioid receptor (MOR), the EC50 is < 100 nM. The molecule further displayed an IC50 in test [1] (setting [2]) of 100 to 1000 nM.

Regarding `CN(C)[C@H](CNC(=O)[C@@H]1C[C@]1(C)c1ccccc1)Cc1ccc2[nH]c(=O)oc2c1` [Compound B-49, (1R,2S)—N—((S)-2-(dimethylamino)-3-(2-oxo-2,3-dihydrobenzo[d]oxazol-6-yl)propyl)-2-methyl-2-phenylcyclopropane-1-carboxamide], the concentration giving a half-maximal response (EC50) at mu opioid receptor (MOR) was < 100 nM. The concentration for half-maximal inhibition (IC50) in test [1] (setting [2]) is > 1000 nM.

Turning to `CNC(=O)c1ccc(C[C@@H](CNC(=O)[C@@H]2C[C@]2(C)c2ccccc2)N(C)C)cc1F` [Compound B-46, 4-((S)-2-(dimethylamino)-3-((1R,2S)-2-methyl-2-phenylcyclopropane-1-carboxamido)propyl)-2-fluoro-N-methylbenzamide], the EC50 on mu opioid receptor (MOR) was < 100 nM. Besides, the concentration for half-maximal inhibition (IC50) in test [1] (setting [2]) is > 1000 nM.

As to `CN(C)[C@H](CNC(=O)[C@H]1C[C@@]1(C)c1ccccc1)Cc1ccc(C(N)=O)cc1` [Compound B-4, 4-((S)-2-(dimethylamino)-3-((1S,2R)-2-methyl-2-phenylcyclopropane-1-carboxamido)propyl)benzamide], the EC50 at mu opioid receptor (MOR) was < 100 nM. In test [1] (setting [2]), this molecule gave a concentration for half-maximal inhibition (IC50) of 100 to 1000 nM.

As to `CN(C)[C@H](CNC(=O)[C@@H]1C[C@]1(C)c1ccccc1)Cc1ccc(C(N)=O)cc1Cl` [Compound B-7, 3-chloro-4-((S)-2-(dimethylamino)-3-((1R,2S)-2-methyl-2-phenylcyclopropane-1-carboxamido)propyl)benzamide], at mu opioid receptor (MOR), the EC50 was < 100 nM. The 50% inhibitory concentration (IC50) in test [1] (setting [2]) is < 100 nM.

(Values after patent US20210147343A1 (priority 2018, published 2021).)
